Measured values: patent publication US9597407B2, “Targeted antimicrobial moieties” (C3 Jian, Inc., priority 2009, dated 2017)

Assays:
microorganisms [1] = test: Peptide activities: binding, antimicrobial, growth or phenotype altering (Table 8)
From the text: In certain embodiments, peptides described herein can have multiple activities. Thus for example, a peptide can have both binding/targeting activity and antimicrobial activity. Such peptides can be used, e.g., in a chimeric construct, for any or all of these properties. Thus, for example, a peptide designated “B” in Table 8 can be used as a targeting peptide. If it is also designated G or M it can also be used for antimicrobial activity.

microorganisms [2] = test: Morphology, biofilm and growth disruption by peptides (Table 5); type: cell-based; set-up: key: A: Peptide aggregates; B: Less hyphal formation; Clumps; Diffuse clumps and small polyps; F: Diffuse growth; H: Thin; I: Growth inhibition; Microcolony formation; Rippled; Small polyps; Thick; W: Halo formation on top, microlonies on bottom
From the text: In certain embodiments peptides that induce alterations in phenotype or other biological activities can also be used as antimicrobial effector moieties.

Substance | Activities (microorganisms [1]) | Organism, effect (microorganisms [2]; C. jeikeium) | Organism, effect (microorganisms [2]; M. luteus) | Organism, effect (microorganisms [2]; MRSA) | Organism, effect (microorganisms [2]; S. epidermidis) | Organism, effect (morphology, biofilm and growth disruption) (microorganisms [2]; MRSA) | Organism, effect (morphology, biofilm and growth disruption) (microorganisms [2]; S. pneumoniae) | other results
PF-063 (IAAIIVLVLFQKGLLQIFNWILIQLQ; Peptide with targeting and/or antimicrobial activity) | G B | C. jeikeium (D) | M. luteus (R) | MRSA (M) | S. epidermidis (R) | – | – | Organism, effect (microorganisms [2]; B. subtilis): B. subtilis (C); Organism, effect (microorganisms [2]; C. jejuni): C. jejuni (D); Organism, effect (microorganisms [2]; P. aeruginosa): P. aeruginosa (A); Organism, effect (microorganisms [2]; S. pneumoniae): S. pneumoniae (D)
PF-042 (LLLSYFRYTGALLQSLF; Peptide with targeting and/or antimicrobial activity) | G B | C. jeikeium (S) | M. luteus (C) | MRSA (R) | S. epidermidis (D) | – | – | –
PF-357 (MLTIIIGFIFWTMTLMLGYLIGEREGRKHE; Peptide with targeting and/or antimicrobial activity) | G B | – | M. luteus (C) | MRSA (M) | S. epidermidis (M) | – | – | Organism, effect (microorganisms [2]; S. pneumoniae): S. pneumoniae (M)
PF-030 (MTCHQAPTTTHQSNMA; Peptide with targeting and/or antimicrobial activity) | G B | C. jeikeium (C) | M. luteus (C) | MRSA (R) | S. epidermidis (D) | – | – | –
PF-386 (FTLTLITTIVAILNYKDKKK; Peptide with targeting and/or antimicrobial activity) | G B | – | – | MRSA (C) | S. epidermidis (C) | – | – | Organism, effect (microorganisms [2]; E. coli): E. coli (C); Organism, effect (microorganisms [2]; E. faecalis): E. faecalis (C)
PF-374 (HLFFVKGMFILCQKNQINDE; Peptide with targeting and/or antimicrobial activity) | G B | – | – | MRSA (M) | S. epidermidis (C) | – | – | Organism, effect (microorganisms [2]; E. coli): E. coli (C); Organism, effect (microorganisms [2]; E. faecalis): E. faecalis (C)
PF-375 (MDSAKAQTMRTDWLAVSCLVASAYLRSMLA; Peptide with targeting and/or antimicrobial activity) | G B | – | – | MRSA (C) | S. epidermidis (C) | – | – | Organism, effect (microorganisms [2]; E. coli): E. coli (C); Organism, effect (microorganisms [2]; E. faecalis): E. faecalis (C)
PF-475 (MREKVRFTQAFKLFWTNYFNFKGRSRRSEY; Peptide with targeting and/or antimicrobial activity) | G B | – | – | – | – | MRSA (S) | S. pneumoniae (R) | Organism, effect (morphology, biofilm and growth disruption) (microorganisms [2]; C. albicans): C. albicans (B); Organism, effect (morphology, biofilm and growth disruption) (microorganisms [2]; C. jejuni): C. jejuni (R); Organism, effect (morphology, biofilm and growth disruption) (microorganisms [2]; E. faecalis): E. faecalis (R); Organism, effect (morphology, biofilm and growth disruption) (microorganisms [2]; S. epidermidis): S. epidermidis (M)
PF-056 (AEQLFGKQKQRGVDLFLNRLTIILSILFFVLMICISYLGM; Peptide with targeting and/or antimicrobial activity) | G B | C. jeikeium (S) | M. luteus (D) | MRSA (M) | S. epidermidis (D) | – | – | Organism, effect (microorganisms [2]; B. subtilis): B. subtilis (C); Organism, effect (microorganisms [2]; C. albicans): C. albicans (B); Organism, effect (microorganisms [2]; C. jejuni): C. jejuni (D); Organism, effect (microorganisms [2]; S. pneumoniae): S. pneumoniae (D)
PF-469 (YKVNYNNIDNHFNTLRH; Peptide with targeting and/or antimicrobial activity) | G B | – | – | – | – | MRSA (D) | S. pneumoniae (D) | Organism, effect (morphology, biofilm and growth disruption) (microorganisms [2]; C. jejuni): C. jejuni (D); Organism, effect (morphology, biofilm and growth disruption) (microorganisms [2]; E. coli): E. coli (C); Organism, effect (morphology, biofilm and growth disruption) (microorganisms [2]; E. faecalis): E. faecalis (D); Organism, effect (morphology, biofilm and growth disruption) (microorganisms [2]; S. epidermidis): S. epidermidis (D)
PF-539 (SIILTKKKRRKIPLSIDSQIYKYTFKQ; Peptide with targeting and/or antimicrobial activity) | G B | – | – | – | – | MRSA (H) | S. pneumoniae (A) | –
PF-543 (NILFGIIGFVVAMTAAVIVTAISIAK; Peptide with targeting and/or antimicrobial activity) | G B | – | – | – | – | MRSA (D) | S. pneumoniae (D) | Organism, effect (morphology, biofilm and growth disruption) (microorganisms [2]; E. coli): E. coli (C); Organism, effect (morphology, biofilm and growth disruption) (microorganisms [2]; M. luteus): M. luteus (C); Organism, effect (morphology, biofilm and growth disruption) (microorganisms [2]; S. epidermidis): S. epidermidis (D); Organism, effect (morphology, biofilm and growth disruption) (microorganisms [2]; S. mutans): S. mutans (S)
